Molecular target: T1, P2X purinoceptor 2 (Rattus norvegicus, UniProt P49653)
T1 sequence (P49653 whole entry): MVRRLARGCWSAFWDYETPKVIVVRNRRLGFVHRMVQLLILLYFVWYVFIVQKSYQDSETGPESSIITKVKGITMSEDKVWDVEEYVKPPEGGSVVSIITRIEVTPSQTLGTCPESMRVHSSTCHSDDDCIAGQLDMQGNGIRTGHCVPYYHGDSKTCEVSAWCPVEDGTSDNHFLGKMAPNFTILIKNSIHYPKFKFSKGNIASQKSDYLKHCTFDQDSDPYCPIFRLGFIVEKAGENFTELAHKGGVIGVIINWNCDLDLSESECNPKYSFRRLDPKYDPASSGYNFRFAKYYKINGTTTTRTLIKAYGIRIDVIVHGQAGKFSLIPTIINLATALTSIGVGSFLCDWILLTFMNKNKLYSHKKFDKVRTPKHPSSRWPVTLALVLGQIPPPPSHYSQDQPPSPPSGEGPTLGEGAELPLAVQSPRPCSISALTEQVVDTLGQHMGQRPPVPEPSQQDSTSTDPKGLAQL
Experiment: Antagonist activity against rat […] receptor expressed in Xenopus laevis oocyte assessed as inhibition of alpha, beta-meATP-induced inward current by two-electrode voltage-clamp electrophysiology

Nc1ncnc2c1ncn2C1OC(COP(=O)(O)OP(=O)(O)OP(=O)(O)O)C2OC3(OC21)C([N+](=O)[O-])=CC([N+](=O)[O-])=CC3=[N+]([O-])[O-] (stereo not drawn) [sodium(3a'R,4'R,6'R,6a'R)-4'-(6-amino-9H-purin-9-yl)-2,6-dinitro-6'-((oxido(oxido(phosphonatooxy)phosphoryloxy)phosphoryloxy)methyl)-3a',4',6',6a'-tetrahydrospiro[cyclohexa[2,5]diene-1,2'-furo[3,4-d][1,3]dioxole]-4-ylideneazinate]
IC50: 4 µM
